The source of these data is patent publication US20150274657A1, “PYRROLIDINES” (MERCK PATENT GMBH, priority 2012, published 2015).

Like-named read-outs stand apart in the source and are kept apart here.

For assay [1], the target named is T1, human Nav1.6 ion channels (Homo sapiens, UniProt Q9UQD0).
T1 construct: host or cells: CHO
The assay is described as follows: IonWorks electrophysiological assay on CHO cells expressing human Nav1.6. Particulars: CHO human Nav1.6 expressing cells. It counts as cell-based. As to the method:
IonWorks electrophysiological assays were conducted to profile compounds for activity on CHO human Nav1.6 ion channels expressing cells (Milipore) using a unique protocol to assess the close (tonic, Pulse 1) and inactivated state inhibition (Pulse 2). The membrane potential is initially held at a hyperpolarized potential (−120 mV) to drive sodium channels into the resting closed state. The membrane is then reset to 0 mV voltage (for 2.5 seconds) following a brief 5 ms hyperpolarization to partially remove inactivation of non-blocked sodium channels; a short 20 ms test voltage step is applied to assess the magnitude of inhibition.

For assay [2] the following is noted: secondary progressive MS patients; over 2 years; p=0.02; cited from earlier work.
[3] abbreviates: closed (tonic) state inhibition (Pulse 1), read-out: Nav1.6 Tonic.
Setting [4] is: inactivated state inhibition (Pulse 2), read-out: Nav1.6 Inactivated.

T1 sequence (Q9UQD0 whole entry): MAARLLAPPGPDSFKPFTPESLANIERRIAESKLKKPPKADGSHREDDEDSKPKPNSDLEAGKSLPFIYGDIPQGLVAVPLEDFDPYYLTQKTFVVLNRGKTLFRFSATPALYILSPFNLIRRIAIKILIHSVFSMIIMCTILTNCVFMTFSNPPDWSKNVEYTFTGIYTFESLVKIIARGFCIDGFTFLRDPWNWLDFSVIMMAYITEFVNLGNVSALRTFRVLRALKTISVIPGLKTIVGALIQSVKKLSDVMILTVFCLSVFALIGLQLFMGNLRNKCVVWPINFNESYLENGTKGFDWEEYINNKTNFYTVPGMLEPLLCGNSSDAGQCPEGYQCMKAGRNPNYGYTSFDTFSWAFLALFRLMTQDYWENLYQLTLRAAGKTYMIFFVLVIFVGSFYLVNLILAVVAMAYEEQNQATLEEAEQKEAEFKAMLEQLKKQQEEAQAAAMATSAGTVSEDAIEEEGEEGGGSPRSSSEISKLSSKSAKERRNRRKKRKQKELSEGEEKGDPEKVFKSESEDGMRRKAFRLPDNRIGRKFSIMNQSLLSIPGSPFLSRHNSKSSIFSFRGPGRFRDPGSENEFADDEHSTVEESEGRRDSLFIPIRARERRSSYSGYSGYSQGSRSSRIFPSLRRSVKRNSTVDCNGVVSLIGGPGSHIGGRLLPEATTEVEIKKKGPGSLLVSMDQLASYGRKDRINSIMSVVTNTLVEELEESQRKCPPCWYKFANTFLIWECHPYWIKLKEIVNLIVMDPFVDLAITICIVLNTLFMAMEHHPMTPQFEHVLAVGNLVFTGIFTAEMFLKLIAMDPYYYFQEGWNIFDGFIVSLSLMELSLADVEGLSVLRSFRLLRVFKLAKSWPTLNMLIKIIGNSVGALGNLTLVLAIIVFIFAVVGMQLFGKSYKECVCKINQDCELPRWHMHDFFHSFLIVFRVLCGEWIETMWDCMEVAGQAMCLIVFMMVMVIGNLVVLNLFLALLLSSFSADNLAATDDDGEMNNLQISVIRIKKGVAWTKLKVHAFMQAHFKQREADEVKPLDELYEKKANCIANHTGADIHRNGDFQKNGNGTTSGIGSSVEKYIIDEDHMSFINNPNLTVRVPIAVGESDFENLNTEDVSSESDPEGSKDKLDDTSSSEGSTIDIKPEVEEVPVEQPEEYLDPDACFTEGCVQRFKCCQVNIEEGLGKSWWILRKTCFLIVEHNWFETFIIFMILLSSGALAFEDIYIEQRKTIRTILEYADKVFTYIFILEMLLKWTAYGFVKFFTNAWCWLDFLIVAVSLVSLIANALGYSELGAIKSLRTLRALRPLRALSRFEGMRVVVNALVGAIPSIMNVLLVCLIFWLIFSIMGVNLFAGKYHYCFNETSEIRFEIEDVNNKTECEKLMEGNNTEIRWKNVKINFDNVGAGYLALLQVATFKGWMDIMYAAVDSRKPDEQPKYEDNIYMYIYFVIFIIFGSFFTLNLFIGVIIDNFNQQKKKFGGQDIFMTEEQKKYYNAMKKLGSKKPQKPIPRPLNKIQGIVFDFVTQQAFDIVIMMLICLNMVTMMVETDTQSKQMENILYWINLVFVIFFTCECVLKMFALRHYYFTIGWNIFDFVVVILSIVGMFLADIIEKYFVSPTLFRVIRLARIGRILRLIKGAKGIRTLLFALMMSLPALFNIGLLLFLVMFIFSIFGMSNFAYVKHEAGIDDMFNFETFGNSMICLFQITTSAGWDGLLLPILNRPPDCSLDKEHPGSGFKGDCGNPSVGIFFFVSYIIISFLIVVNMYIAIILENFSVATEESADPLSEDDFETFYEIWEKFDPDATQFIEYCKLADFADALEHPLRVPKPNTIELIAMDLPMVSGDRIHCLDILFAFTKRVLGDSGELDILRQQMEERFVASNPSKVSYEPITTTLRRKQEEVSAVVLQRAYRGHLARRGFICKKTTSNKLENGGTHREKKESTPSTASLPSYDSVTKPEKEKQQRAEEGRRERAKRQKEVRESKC

With `CC1(C(=O)N2CCc3cccnc3C2)CCN(Cc2cccc(Oc3ccccc3)c2)C1` (racemic) [Example 32, (±) (5,8-dihydro-6H-[1,7]naphthyridin-7-yl)-[3-methyl-1-(3-phenoxy-benzyl)-pyrrolidin-3-yl]-methanone], the IC50 was greater than 33000 nM in assay [1] (setting [3]) and 1670 nM in assay [1] (setting [4]). Taken in the same sequence, the figures for `CC1(C(=O)N2CCOCC2)CCN(Cc2cccc(Oc3ccccc3)c2)C1` (racemic) [Example 15, (±) [3-methyl-1-(3-phenoxy-benzyl)-pyrrolidin-3-yl]-morpholin-4-yl-methanone] were 15500 nM and 733 nM. Take `COC1CCCN(C(=O)C2CCN(Cc3cccc(Oc4ccccc4)c3)C2)C1` (racemic) [Example 29, (±) (3-methoxy-piperidin-1-yl)-[1-(3-phenoxy-benzyl)-pyrrolidin-3-yl]-methanone]: the IC50 in assay [1] (setting [3]) is greater than 33000 nM; in assay [1] (setting [4]), 1890 nM.

In the case of `CCNC(=O)[C@]1(C)CCN(Cc2cccc(Oc3ccccc3)c2)C1` (single isomer, unassigned) [Example 11], the IC50 in assay [1] (setting [3]) amounted to 15700 nM; in assay [1] (setting [4]) it was 825 nM. The like results for `CCCNC(=O)C1(C)CCN(Cc2ccc(-c3ccccc3)o2)C1` (stereo not shown) [Example 5] were, in that order, 30700 nM and 785 nM. Taken in the same sequence, the figures for `CCCNC(=O)C1(C)CCN(Cc2cccc(Oc3ccccc3)c2)C1` (stereo not shown) [Example 4] were 9420 nM and 1030 nM. The like results for `CC1(C(=O)NCc2ccncc2)CCN(Cc2cccc(Oc3ccccc3)c2)C1` (racemic) [Example 17, (±) 3-methyl-1-(3-phenoxy-benzyl)-pyrrolidine-3-carboxylic acid (pyridin-4-ylmethyl)-amide] were, in that order, 16400 nM and 940 nM.

`COCCNC(=O)C1(C)CCN(Cc2cccc(Oc3ccccc3)c2)C1` (stereo not shown) [Example 2]: the IC50 came to 15500 nM in assay [1] (setting [3]) and 993 nM in assay [1] (setting [4]). `O=C(NCCc1ccccn1)C1CCN(Cc2cccc(Oc3ccccc3)c2)C1` (racemic) [Example 28, (±) 1-(3-phenoxy-benzyl)-pyrrolidine-3-carboxylic acid (2-pyridin-2-yl-ethyl)-amide]: the values for the IC50 in assay [1] (setting [3]) and in assay [1] (setting [4]) were 19600 nM and 1170 nM, respectively. Consider `CC1(C(=O)NCc2ccccn2)CCN(Cc2cccc(Oc3ccccc3)c2)C1` (racemic) [Example 12, (±) 3-methyl-1-(3-phenoxy-benzyl)-pyrrolidine-3-carboxylic acid (pyridin-2-ylmethyl)-amide], for which the IC50 in assay [1] (setting [3]) was greater than 33000 nM; in assay [1] (setting [4]), 228 nM. Consider `CC1(C(=O)N2CCc3cccc(C(F)(F)F)c3C2)CCN(Cc2cccc(Oc3ccccc3)c2)C1` (racemic) [Example 13, (±) [3-methyl-1-(3-phenoxy-benzyl)-pyrrolidin-3-yl]-(8-trifluoromethyl-3,4-dihydro-1H-isoquinolin-2-yl)-methanone], for which the IC50 was greater than 33000 nM in assay [1] (setting [3]) and 1970 nM in assay [1] (setting [4]). The like results for `COCCNC(=O)C1CCN(Cc2cccc(Oc3ccccc3)c2)C1` (racemic) [Example 19, (±) 1-(3-phenoxy-benzyl)-pyrrolidine-3-carboxylic acid (2-methoxy-ethyl)-amide] were, in that order, 30300 nM and 1180 nM. Regarding `CC1(C(=O)NCc2ccccn2)CCN(Cc2csc(-c3ccccc3)n2)C1` (racemic) [Example 21, (±) 3-methyl-1-(2-phenyl-thiazol-4-ylmethyl)-pyrrolidine-3-carboxylic acid (pyridin-2-ylmethyl)-amide], the IC50 in assay [1] (setting [3]) is greater than 33000 nM; in assay [1] (setting [4]), 1080 nM. Taken in the same sequence, the figures for `CCCNC(=O)C1(C)CCN(Cc2cccc(OC(=O)c3ccccc3)c2)C1` (stereo not shown) [Example 7] were greater than 33000 nM and 1610 nM. Taken in the same sequence, the figures for `CC1CN(C(=O)C2CCN(Cc3cccc(Oc4ccccc4)c3)C2)CCO1` (racemic) [Example 27, (±) (2-methyl-morpholin-4-yl)-[1-(3-phenoxy-benzyl)-pyrrolidin-3-yl]-methanone] were greater than 33000 nM and 1440 nM. Taken in the same sequence, the figures for `CC1(C(=O)NCc2cccnc2)CCN(Cc2cccc(Oc3ccccc3)c2)C1` (racemic) [Example 16, (±) 3-methyl-1-(3-phenoxy-benzyl)-pyrrolidine-3-carboxylic acid (pyridin-3-ylmethyl)-amide] were 13100 nM and 409 nM.

Turning to `CN1CCN(C(=O)C2(C)CCN(Cc3cccc(Oc4ccccc4)c3)C2)CC1` (racemic) [Example 20, (±) [3-methyl-1-(3-phenoxy-benzyl)-pyrrolidin-3-yl]-(4-methyl-piperazin-1-yl)-methanone], the IC50 in assay [1] (setting [3]) amounted to 8940 nM; in assay [1] (setting [4]), 1910 nM. For the compound `COC(=O)C1(C)CCN(Cc2cccc(OCC(C)C)c2)C1` (racemic) [Example 22, (±) 1-(3-isobutoxy-benzyl)-3-methyl-pyrrolidine-3-carboxylic acid methyl ester], the IC50 in assay [1] (setting [3]) is greater than 33000 nM; in assay [1] (setting [4]), 994 nM.

Regarding `Nc1nnc(-c2cccc(Cl)c2Cl)c(N)n1` [Lamotrigine], in assay [2], the “deterioration of the timed 25-foot walk” value is “reduced the deterioration of the timed 25-foot walk”. For `COC1CCN(C(=O)C2CCN(Cc3cccc(Oc4ccccc4)c3)C2)CC1` (racemic) [Example 30, (±) (4-methoxy-piperidin-1-yl)-[1-(3-phenoxy-benzyl)-pyrrolidin-3-yl]-methanone], the IC50 in assay [1] (setting [3]) is greater than 33000 nM; in assay [1] (setting [4]), 1090 nM. Taken in the same sequence, the figures for `Cc1ccccc1CNC(=O)C1(C)CCN(Cc2cccc(Oc3ccccc3)c2)C1` (racemic) [Example 9, (±) 3-methyl-1-(3-phenoxy-benzyl)-pyrrolidine-3-carboxylic acid 2-methyl-benzylamide] were 14100 nM and 615 nM. The like results for `CC(C)COc1cccc(CN2CCC(C)(C(=O)NCc3ccccn3)C2)c1` (racemic) [Example 23, (±) 1-(3-isobutoxy-benzyl)-3-methyl-pyrrolidine-3-carboxylic acid (pyridin-2-ylmethyl)-amide] were, in that order, greater than 33000 nM and 445 nM.

In the case of `CC1(C(=O)NCCc2ccccn2)CCN(Cc2cccc(Oc3ccccc3)c2)C1` (racemic) [Example 26, (±) 3-methyl-1-(3-phenoxy-benzyl)-pyrrolidine-3-carboxylic acid (2-pyridin-2-v1-ethyl)-amide], the values for the IC50 in assay [1] (setting [3]) and in assay [1] (setting [4]) were 10600 nM and 771 nM, respectively. Taken in the same sequence, the figures for `CC(C)COc1cccc(CN2CCC(C)(C(=O)N(C)Cc3ccccn3)C2)c1` (racemic) [Example 25, (±) 1-(3-isobutoxy-benzyl)-3-methyl-pyrrolidine-3-carboxylic acid methyl-pyridin-2-ylmethyl-amide] were 19900 nM and 752 nM. Taken in the same sequence, the figures for `CCNC(=O)C1CCN(Cc2cccc(Oc3ccccc3)c2)C1` (racemic) [Example 18, (±) 1-(3-phenoxy-benzyl)-pyrrolidine-3-carboxylic acid ethylamide] were 23100 nM and 621 nM. With `CN(Cc1ccccn1)C(=O)C1(C)CCN(Cc2cccc(Oc3ccccc3)c2)C1` (racemic) [Example 14, (±) 3-methyl-1-(3-phenoxy-benzyl)-pyrrolidine-3-carboxylic acid methyl-pyridin-2-ylmethyl-amide], the results for the IC50 in assay [1] (setting [3]) and in assay [1] (setting [4]) were 30300 nM and 473 nM, respectively.

Take `O=C(NCc1ccccn1)C1CCN(Cc2cccc(Oc3ccccc3)c2)C1` (racemic) [Example 34, (±) 1-(3-phenoxy-benzyl)-pyrrolidine-3-carboxylic acid (Pyridin-2-ylmethyl)-amide]: the IC50 was 16200 nM in assay [1] (setting [3]) and 353 nM in assay [1] (setting [4]). The like results for `CCNC(=O)C1(C)CCN(Cc2ccc(-c3ccccc3)cc2)C1` (stereo not shown) [Example 1] were, in that order, 21400 nM and 1770 nM. Taken in the same sequence, the figures for `CC1(C(=O)N2Cc3cccnc3C2)CCN(Cc2cccc(Oc3ccccc3)c2)C1` (racemic) [Example 31, (±) (5,7-dihydro-pyrrolo[3,4-b]pyridin-6-yl)-[3-methyl-1-(3-phenoxy-benzyl)-pyrrolidin-3-yl]-methanone] were greater than 33000 nM and 1740 nM.

On to `COC1CCN(C(=O)C2CCN(Cc3cccc(Oc4ccccc4)c3)C2)C1` (racemic) [Example 33, (±) (3-methoxy-pyrrolidin-1-yl)-[1-(3-phenoxy-benzyl)-Pyrrolidin-3-yl]-methanone], for which the IC50 was greater than 33000 nM in assay [1] (setting [3]) and 1520 nM in assay [1] (setting [4]). Take `CCCNC(=O)C1(C)CCN(Cc2ccc(OC)c3ccccc23)C1` (stereo not shown) [Example 6]: the values for the IC50 in assay [1] (setting [3]) and in assay [1] (setting [4]) were 23400 nM and 1860 nM, respectively. Turning to `CCNC(=O)[C@@]1(C)CCN(Cc2cccc(Oc3ccccc3)c2)C1` (single isomer, unassigned) [Example 10], the IC50 in assay [1] (setting [3]) is 20000 nM; in assay [1] (setting [4]) it was 808 nM. The like results for `O=C(NCc1cccnc1)[C@@H]1CCN(Cc2cccc(Oc3ccccc3)c2)C1` [Example 24, (R)-1(3-phenoxy-benzyl)-pyrrolidine-3-carboxylic acid (pyridin-3-ylmethyl)-amide] were, in that order, 29900 nM and 1300 nM.

For the compound `CCCNC(=O)C1(C)CCN(Cc2csc(-c3ccc(Cl)cc3)n2)C1` (stereo not shown) [Example 8], the IC50 in assay [1] (setting [3]) was determined as 14800 nM; in assay [1] (setting [4]), 1030 nM.
